Here are results for 17 molecules from patent publication US20230340011A1 (Asteroid Therapeutics, priority 2022, published 2023).

One assay concerns the target SREBP-2 (Homo sapiens (Human), UniProt Q12772). The assay can be described thus: In vitro assay SREBP-2: PathHunter U2OS SREBP-2 Nuclear Translocation Cell Line, U18666A-stimulated. It counts as cell-based. The note with it: PathHunter U2OS SREBP-2 nuclear translocation cells, U18666A 10 μM, overnight (16 hours).
For another assay, the target named is LXRβ (Homo sapiens (Human), UniProt P55055). In words: In vitro assay LXRβ: PathHunter NHR CHO cells, LXRβ / Steroid Receptor Co-activator Peptide enzyme fragment complementation. It counts as cell-based. The note with it: PathHunter NHR CHO cells, full-length human LXRβ and SRCP, chemiluminescent signal; read-out: LXRβ PPI. In short, it runs like this:
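Co-activator recruitment measured by chemiluminescence after signal generation. The CHO line carries full-length human LXRβ tagged with ProLink and an SRCP–enzyme acceptor fusion in the nucleus; cells sat overnight at 37° C before testing, in charcoal-dextran filtered serum medium with 1% final vehicle.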

Sequence of LXRβ (P55055 whole entry, the tested form may be a part): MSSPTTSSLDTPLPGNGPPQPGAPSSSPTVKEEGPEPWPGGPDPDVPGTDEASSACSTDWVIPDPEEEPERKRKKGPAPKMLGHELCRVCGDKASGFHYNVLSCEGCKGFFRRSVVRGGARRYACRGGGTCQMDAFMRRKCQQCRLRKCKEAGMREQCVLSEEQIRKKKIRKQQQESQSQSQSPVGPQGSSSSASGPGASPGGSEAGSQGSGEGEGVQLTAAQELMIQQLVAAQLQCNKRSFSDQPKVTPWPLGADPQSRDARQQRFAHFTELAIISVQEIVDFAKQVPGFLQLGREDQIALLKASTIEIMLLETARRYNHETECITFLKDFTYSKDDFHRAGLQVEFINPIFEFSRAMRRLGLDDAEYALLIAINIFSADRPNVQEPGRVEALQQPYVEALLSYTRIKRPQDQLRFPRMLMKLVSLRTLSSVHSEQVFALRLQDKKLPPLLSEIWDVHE

The term IC50 denotes the point on the concentration scale where inhibition reaches its midpoint. A high value points to lower potency. `CC(=O)N(C)C1CCN(C(=O)CC[C@@H](C)[C@H]2CC[C@H]3[C@@H]4CC=C5C[C@@H](O)CC[C@]5(C)[C@H]4CC[C@]23C)CC1` [Example 319, N-(1-((R)-4-((3S,8S,9S,10R,13R,14S,17R)-3-hydroxy-10,13-dimethyl-2,3,4,7,8,9,10,11,12,13,14,15,16,17-tetradecahydro-1H-cyclopenta[a]phenanthren-17-yl)pentanoyl)piperidin-4-yl)-N-methylacetamide]: the IC50 at SREBP-2 is < 250 nM. On LXRβ, the EC50 was > 10000 nM.

For the molecule `CC(=O)NC1CCN(C(=O)CC[C@@H](C)[C@H]2CC[C@H]3[C@@H]4CC=C5C[C@@H](O)CC[C@]5(C)[C@H]4CC[C@]23C)CC1` [Example 320, N-(1-((R)-4-((3S,8S,9S,10R,13R,14S,17R)-3-hydroxy-10,13-dimethyl-2,3,4,7,8,9,10,11,12,13,14,15,16,17-tetradecahydro-1H-cyclopenta[a]phenanthren-17-yl)pentanoyl)piperidin-4-yl)acetamide], the IC50 at SREBP-2 was < 250 nM. For the same molecule, the EC50 at LXRβ was > 10000 nM.

`CC(=O)N(C)[C@H]1CCN(C(=O)CC[C@@H](C)[C@H]2CC[C@H]3[C@@H]4CC=C5C[C@@H](O)CC[C@]5(C)[C@H]4CC[C@]23C)C1` [Example 321, N—((S)-1-((R)-4-((3S,8S,9S,10R,13R,14S,17R)-3-hydroxy-10,13-dimethyl-2,3,4,7,8,9,10,11,12,13,14,15,16,17-tetradecahydro-1H-cyclopenta[a]phenanthren-17-yl)pentanoyl)pyrrolidin-3-yl)-N-methylacetamide]: the IC50 on SREBP-2 was < 250 nM. The EC50 at LXRβ is > 10000 nM.

As to `CC(=O)N[C@H]1CCN(C(=O)CC[C@@H](C)[C@H]2CC[C@H]3[C@@H]4CC=C5C[C@@H](O)CC[C@]5(C)[C@H]4CC[C@]23C)C1` [Example 322, N—((S)-1-((R)-4-((3S,8S,9S,10R,13R,14S,17R)-3-hydroxy-10,13-dimethyl-2,3,4,7,8,9,10,11,12,13,14,15,16,17-tetradecahydro-1H-cyclopenta[a]phenanthren-17-yl)pentanoyl)pyrrolidin-3-yl)acetamide], the IC50 on SREBP-2 was < 250 nM. On LXRβ, the EC50 was > 10000 nM.

`CC(=O)N(C)[C@@H]1CCN(C(=O)CC[C@@H](C)[C@H]2CC[C@H]3[C@@H]4CC=C5C[C@@H](O)CC[C@]5(C)[C@H]4CC[C@]23C)C1` [Example 323, N—((R)-1-((R)-4-((3S,8S,9S,10R,13R,14S,17R)-3-hydroxy-10,13-dimethyl-2,3,4,7,8,9,10,11,12,13,14,15,16,17-tetradecahydro-1H-cyclopenta[a]phenanthren-17-yl)pentanoyl)pyrrolidin-3-yl)-N-methylacetamide]: the IC50 on SREBP-2 was in the range of 250 to 1000 nM. Besides, the EC50 at LXRβ is > 10000 nM.

With `CC(=O)N[C@@H]1CCN(C(=O)CC[C@@H](C)[C@H]2CC[C@H]3[C@@H]4CC=C5C[C@@H](O)CC[C@]5(C)[C@H]4CC[C@]23C)C1` [Example 324, N-[(3R)-1-[(4R)-4-[(1R,3aS,3bS,7S,9aR,9bS,11aR)-7-hydroxy-9a,11a-dimethyl-1H,2H,3H,3aH,3bH,4H,6H,7H,8H,9H,9aH,9bH,10H,11H,11aH-cyclopenta[a]phenanthren-1-yl]pentanoyl]pyrrolidin-3-yl]acetamide], the IC50 against SREBP-2 fell in the range of 250 to 1000 nM. Moreover, the EC50 at LXRβ was > 10000 nM.

Turning to `C#CC1(OC(C)C)CCN(C(=O)CC[C@@H](C)[C@H]2CC[C@H]3[C@@H]4CC=C5C[C@@H](O)CC[C@]5(C)[C@H]4CC[C@]23C)CC1` [Example 329, [(1R,3aS,3bS,7S,9aR,9bS,11aR)-7-hydroxy-9a,11a-dimethyl-1H,2H,3H,3aH,3bH,4H,6H,7H,8H,9H,9aH,9bH,10H,11H,11aH-cyclopenta[a]phenanthren-1-yl]-1-[4-ethynyl-4-(propan-2-yloxy)piperidin-1-yl]pentan-1-one], the IC50 against SREBP-2 is < 250 nM. The EC50 at LXRβ lay in the range of 1000 to 10000 nM.

In the case of `COC([C@@H]1CCN(C(=O)CC[C@@H](C)[C@H]2CC[C@H]3[C@@H]4CC=C5C[C@@H](O)CC[C@]5(C)[C@H]4CC[C@]23C)C1)(C(F)(F)F)C(F)(F)F` [Example 331, (4R)-4-[(1R,3aS,3bS,7S,9aR,9bS,11aR)-7-hydroxy-9a,11a-dimethyl-1H,2H,3H,3aH,3bH,4H,6H,7H,8H,9H,9aH,9bH,10H,11H,11aH-cyclopenta[a]phenanthren-1-yl]-1-[(3R)-3-(1,1,1,3,3,3-hexafluoro-2-methoxypropan-2-yl)pyrrolidin-1-yl]pentan-1-one], on SREBP-2, the IC50 was < 250 nM. Further, the EC50 at LXRβ is > 10000 nM.

With `C[C@H](CCC(=O)N1CCN(C(=O)c2ncccn2)CC1)[C@H]1CC[C@H]2[C@@H]3CC=C4C[C@@H](O)CC[C@]4(C)[C@H]3CC[C@]12C` [Example 332, (R)-4-((3S,8S,9S,10R,13R,14S,17R)-3-hydroxy-10,13-dimethyl-2,3,4,7,8,9,10,11,12,13,14,15,16,17-tetradecahydro-1H-cyclopenta[a]phenanthren-17-yl)-1-(4-(pyrimidine-2-carbonyl)piperazin-1-yl)pentan-1-one], on SREBP-2, the IC50 was < 250 nM. Besides, at LXRβ, the EC50 was > 10000 nM.

As to `C[C@H](CCC(=O)N1CCN(C(=O)c2ccncn2)CC1)[C@H]1CC[C@H]2[C@@H]3CC=C4C[C@@H](O)CC[C@]4(C)[C@H]3CC[C@]12C` [Example 334, (R)-4-((3S,8S,9S,10R,13R,14S,17R)-3-hydroxy-10,13-dimethyl-2,3,4,7,8,9,10,11,12,13,14,15,16,17-tetradecahydro-1H-cyclopenta[a]phenanthren-17-yl)-1-(4-(pyrimidine-4-carbonyl)piperazin-1-yl)pentan-1-one], at SREBP-2, the IC50 is < 250 nM. The EC50 at LXRβ is > 10000 nM.

In the case of `C[C@H](CCC(=O)N1CCN(C(=O)c2ccccn2)CC1)[C@H]1CC[C@H]2[C@@H]3CC=C4C[C@@H](O)CC[C@]4(C)[C@H]3CC[C@]12C` [Example 335, (4R)-4-[(1R,3aS,3bS,7S,9aR,9bS,11aR)-7-hydroxy-9a,11a-dimethyl-1H,2H,3H,3aH,3bH,4H,6H,7H,8H,9H,9aH,9bH,10H,11H,11aH-cyclopenta[a]phenanthren-1-yl]-1-[4-(pyridine-2-carbonyl)piperazin-1-yl]pentan-1-one], the IC50 at SREBP-2 is < 250 nM. Besides, the EC50 at LXRβ was > 10000 nM.

As for `C[C@H](CCC(=O)N1CCN(C(=O)C(C)(C)O)CC1)[C@H]1CC[C@H]2[C@@H]3CC=C4C[C@@H](O)CC[C@]4(C)[C@H]3CC[C@]12C` [Example 336, (R)-4-((3S,8S,9S,10R,13R,14S,17R)-3-hydroxy-10,13-dimethyl-2,3,4,7,8,9,10,11,12,13,14,15,16,17-tetradecahydro-1H-cyclopenta[a]phenanthren-17-yl)-1-(4-(2-hydroxy-2-methylpropanoyl)piperazin-1-yl)pentan-1-one], at SREBP-2, the IC50 is < 250 nM. Also, the EC50 at LXRβ is > 10000 nM.

As for `CNC(=O)N1CCN(C(=O)CC[C@@H](C)[C@H]2CC[C@H]3[C@@H]4CC=C5C[C@@H](O)CC[C@]5(C)[C@H]4CC[C@]23C)CC1` [Example 337, 4-[(4R)-4-[(1R,3aS,3bS,7S,9aR,9bS,11aR)-7-hydroxy-9a,11a-dimethyl-1H,2H,3H,3aH,3bH,4H,6H,7H,8H,9H,9aH,9bH,10H,11H,11aH-cyclopenta[a]phenanthren-1-yl]pentanoyl]-N-methylpiperazine-1-carboxamide], the IC50 against SREBP-2 was < 250 nM. Besides, at LXRβ, the EC50 is > 10000 nM.

As to `C[C@H](CCC(=O)N1CCN(C(=O)NC2CC2)CC1)[C@H]1CC[C@H]2[C@@H]3CC=C4C[C@@H](O)CC[C@]4(C)[C@H]3CC[C@]12C` [Example 338, 4-[(4R)-4-[(1R,3aS,3bS,7S,9aR,9bS,11aR)-7-hydroxy-9a,11a-dimethyl-1H,2H,3H,3aH,3bH,4H,6H,7H,8H,9H,9aH,9bH,10H,11H,11aH-cyclopenta[a]phenanthren-1-yl]pentanoyl]-N-cyclopropylpiperazine-1-carboxamide], the IC50 on SREBP-2 is < 250 nM. For the same molecule, the EC50 at LXRβ was > 10000 nM.

Regarding `C[C@H](CCC(=O)N1CCN(C(=O)N(C)C)CC1)[C@H]1CC[C@H]2[C@@H]3CC=C4C[C@@H](O)CC[C@]4(C)[C@H]3CC[C@]12C` [Example 339, 4-[(4R)-4-[(1R,3aS,3bS,7S,9aR,9bS,11aR)-7-hydroxy-9a,11a-dimethyl-1H,2H,3H,3aH,3bH,4H,6H,7H,8H,9H,9aH,9bH,10H,11H,11aH-cyclopenta[a]phenanthren-1-yl]pentanoyl]-N,N-dimethylpiperazine-1-carboxamide], at SREBP-2, the IC50 was < 250 nM. The EC50 at LXRβ is > 10000 nM.

For the molecule `C[C@H](CCC(=O)N1CCN(C(=O)OC2CC2)CC1)[C@H]1CC[C@H]2[C@@H]3CC=C4C[C@@H](O)CC[C@]4(C)[C@H]3CC[C@]12C` [Example 340, cyclopropyl4-[(4R)-4-[(1R,3aS,3bS,7S,9aR,9bS,11aR)-7-hydroxy-9a,11a-dimethyl-1H,2H,3H,3aH,3bH,4H,6H,7H,8H,9H,9aH,9bH,10H,11H,11aH-cyclopenta[a]phenanthren-1-yl]pentanoyl]piperazine-1-carboxylate], the IC50 at SREBP-2 is < 250 nM. Moreover, the EC50 on LXRβ was > 10000 nM.

For the molecule `CC(C)OC(=O)N1CCN(C(=O)CC[C@@H](C)[C@H]2CC[C@H]3[C@@H]4CC=C5C[C@@H](O)CC[C@]5(C)[C@H]4CC[C@]23C)CC1` [Example 341, isopropyl4-((R)-4-((3S,8S,9S,10R,13R,14S,17R)-3-hydroxy-10,13-dimethyl-2,3,4,7,8,9,10,11,12,13,14,15,16,17-tetradecahydro-1H-cyclopenta[a]phenanthren-17-yl)pentanoyl)piperazine-1-carboxylate], the IC50 on SREBP-2 was < 250 nM. The EC50 on LXRβ is > 10000 nM.
